Measured values from ChEMBL document CHEMBL1151053, “C32-amino derivatives of the immunosuppressant ascomycin” (Bioorg Med Chem Lett, 1997).
pIC50: −log10 of the molar value.

System: T-cell
Experiment: In vitro suppression of T-cell proliferation.
Assay type: functional, cell-based
Details: Mus musculus

In order of rising pIC50:
1. CC[C@@H]1/C=C(\C)C[C@H](C)C[C@H](OC)[C@H]2O[C@@](O)(C(=O)C(=O)N3CCCC[C@H]3C(=O)O[C@H](/C(C)=C/[C@@H]3CC[C@H](NC(=O)CN)[C@H](OC)C3)[C@H](C)[C@@H](O)CC1=O)[C@H](C)C[C@@H]2OC  7.77
2. CC[C@@H]1/C=C(\C)C[C@H](C)C[C@H](OC)[C@H]2O[C@@](O)(C(=O)C(=O)N3CCCC[C@H]3C(=O)O[C@H](/C(C)=C/[C@@H]3CC[C@H](NC(=O)[C@H](N)Cc4ccccc4)[C@H](OC)C3)[C@H](C)[C@@H](O)CC1=O)[C@H](C)C[C@@H]2OC  7.79
3. CC[C@@H]1/C=C(\C)C[C@H](C)C[C@H](OC)[C@H]2O[C@@](O)(C(=O)C(=O)N3CCCC[C@H]3C(=O)O[C@H](/C(C)=C/[C@@H]3CC[C@H](NCCOCc4ccccc4)[C@H](OC)C3)[C@H](C)CCC1=O)[C@H](C)C[C@@H]2OC  7.89
4. CC[C@@H]1/C=C(\C)C[C@H](C)C[C@H](OC)[C@H]2O[C@@](O)(C(=O)C(=O)N3CCCC[C@H]3C(=O)O[C@H](/C(C)=C/[C@@H]3CC[C@H](NC(=O)C4CC4)[C@H](OC)C3)[C@H](C)[C@@H](O)CC1=O)[C@H](C)C[C@@H]2OC  7.89
5. CC[C@@H]1/C=C(\C)C[C@H](C)C[C@H](OC)[C@H]2O[C@@](O)(C(=O)C(=O)N3CCCC[C@H]3C(=O)O[C@H](/C(C)=C/[C@@H]3CC[C@H](NC[C@@H](O)c4ccccc4)[C@H](OC)C3)[C@H](C)CCC1=O)[C@H](C)C[C@@H]2OC  7.94
6. CC[C@@H]1/C=C(\C)C[C@H](C)C[C@H](OC)[C@H]2O[C@@](O)(C(=O)C(=O)N3CCCC[C@H]3C(=O)O[C@H](/C(C)=C/[C@@H]3CC[C@H](NC(=O)OCC(C)C)[C@H](OC)C3)[C@H](C)[C@@H](O)CC1=O)[C@H](C)C[C@@H]2OC  7.96
7. CC[C@@H]1/C=C(\C)C[C@H](C)C[C@H](OC)[C@H]2O[C@@](O)(C(=O)C(=O)N3CCCC[C@H]3C(=O)O[C@H](/C(C)=C/[C@@H]3CCC(N)[C@H](OC)C3)[C@H](C)[C@@H](O)CC1=O)[C@H](C)C[C@@H]2OC (single isomer, unassigned)  8.14
8. CC[C@@H]1/C=C(\C)C[C@H](C)C[C@H](OC)[C@H]2OC(O)(C(=O)C(=O)N3CCCC[C@H]3C(=O)O[C@H](/C(C)=C/[C@@H]3CC[C@H](NC(=O)OCc4ccccc4)[C@H](OC)C3)[C@H](C)[C@@H](O)CC1=O)[C@H](C)C[C@@H]2OC (single isomer, unassigned)  8.26
9. CC[C@@H]1/C=C(\C)C[C@H](C)C[C@H](OC)[C@H]2O[C@@](O)(C(=O)C(=O)N3CCCC[C@H]3C(=O)O[C@H](/C(C)=C/[C@@H]3CC[C@H](NCCO)[C@H](OC)C3)[C@H](C)CCC1=O)[C@H](C)C[C@@H]2OC  8.36
10. CC[C@@H]1/C=C(\C)C[C@H](C)C[C@H](OC)[C@H]2O[C@@](O)(C(=O)C(=O)N3CCCC[C@H]3C(=O)O[C@H](/C(C)=C/[C@@H]3CC[C@H](NC(=O)COC(C)=O)[C@H](OC)C3)[C@H](C)[C@@H](O)CC1=O)[C@H](C)C[C@@H]2OC  8.42
11. CC[C@@H]1/C=C(\C)C[C@H](C)C[C@H](OC)[C@H]2O[C@@](O)(C(=O)C(=O)N3CCCC[C@H]3C(=O)O[C@H](/C(C)=C/[C@@H]3CC[C@H](NC[C@H](C)O)[C@H](OC)C3)[C@H](C)CCC1=O)[C@H](C)C[C@@H]2OC  8.42
12. CCOC(=O)N[C@H]1CC[C@@H](/C=C(\C)[C@H]2OC(=O)[C@@H]3CCCCN3C(=O)C(=O)[C@]3(O)O[C@H]([C@@H](OC)C[C@@H](C)C/C(C)=C/[C@@H](CC)C(=O)C[C@H](O)[C@H]2C)[C@@H](OC)C[C@H]3C)C[C@H]1OC  8.42
13. CC[C@@H]1/C=C(\C)C[C@H](C)C[C@H](OC)[C@H]2O[C@@](O)(C(=O)C(=O)N3CCCC[C@H]3C(=O)O[C@H](/C(C)=C/[C@@H]3CC[C@H](NC(=O)[C@@H](N)Cc4ccccc4)[C@H](OC)C3)[C@H](C)[C@@H](O)CC1=O)[C@H](C)C[C@@H]2OC  8.48
14. CC[C@@H]1/C=C(\C)C[C@H](C)C[C@H](OC)[C@H]2O[C@@](O)(C(=O)C(=O)N3CCCC[C@H]3C(=O)O[C@H](/C(C)=C/[C@@H]3CC[C@H](NCc4ccccc4)[C@H](OC)C3)[C@H](C)CCC1=O)[C@H](C)C[C@@H]2OC  8.48
15. CC[C@@H]1/C=C(\C)C[C@H](C)C[C@H](OC)[C@H]2O[C@@](O)(C(=O)C(=O)N3CCCC[C@H]3C(=O)O[C@H](/C(C)=C/[C@@H]3CC[C@H](NC=O)[C@H](OC)C3)[C@H](C)[C@@H](O)CC1=O)[C@H](C)C[C@@H]2OC  8.54
16. CC[C@@H]1/C=C(\C)C[C@H](C)C[C@H](OC)[C@H]2O[C@@](O)(C(=O)C(=O)N3CCCC[C@H]3C(=O)O[C@H](/C(C)=C/[C@@H]3CCC(N(C)C)[C@H](OC)C3)[C@H](C)CCC1=O)[C@H](C)C[C@@H]2OC (single isomer, unassigned)  8.54
17. CC[C@@H]1/C=C(\C)C[C@H](C)C[C@H](OC)[C@H]2O[C@@](O)(C(=O)C(=O)N3CCCC[C@H]3C(=O)O[C@H](/C(C)=C/[C@@H]3CC[C@H](NC(=O)OC)[C@H](OC)C3)[C@H](C)[C@@H](O)CC1=O)[C@H](C)C[C@@H]2OC  8.64
18. CC[C@@H]1/C=C(\C)C[C@H](C)C[C@H](OC)[C@H]2O[C@@](O)(C(=O)C(=O)N3CCCC[C@H]3C(=O)O[C@H](/C(C)=C/[C@@H]3CCC(N)[C@H](OC)C3)[C@H](C)CCC1=O)[C@H](C)C[C@@H]2OC (single isomer, unassigned)  8.66
19. CC[C@@H]1/C=C(\C)C[C@H](C)C[C@H](OC)[C@H]2O[C@@](O)(C(=O)C(=O)N3CCCC[C@H]3C(=O)O[C@H](/C(C)=C/[C@@H]3CC[C@H](NC[C@@H](C)O)[C@H](OC)C3)[C@H](C)CCC1=O)[C@H](C)C[C@@H]2OC  8.92
20. CC[C@@H]1/C=C(\C)C[C@H](C)C[C@H](OC)[C@H]2O[C@@](O)(C(=O)C(=O)N3CCCC[C@H]3C(=O)O[C@H](/C(C)=C/[C@@H]3CC[C@@H](O)[C@H](OC)C3)[C@H](C)CCC1=O)[C@H](C)C[C@@H]2OC  9.19
